# Data as given in US4396614A, “Novel steroids” (Uclaf; Roussel, priority 1980, dated 1983).
# How the values were obtained:
# aldosterone monoacetate = assay: Antialdosterone activity: diuresis test in surrenalectomized rats (Kagawa/Marcus); type: in vivo, rat; conditions: surrenalectomized male Sprague Dawley rats, 4 hours urine collection
# Procedure: The study was effected by a test inspired by Kagawa [P.S.E.B.M., Vol. 99 (1958), p. 705] and Marcus [Endocrinology, Vol. 50 (1952), p. 286] in which male rats of the Sprague Dawley SPF 1FFA CREDO strain weighing 180 g were surrenalectomized 7 days before diuresis while anestesized with Imalgene (Ketamine) intraperitoneally at a dose of 100 mg/kg. After the operation and from the night before the start of the test, the rats received physiological serum as drinking water and the animals were held without food or drink for 17 hours before diuresis and the physiological serum was replaced by water containing 5% glucose. The test products were orally administered before placing them in a cage and at the moment of diuresis, the animals received intraperitoneally a hydrosaline surcharge of 5 ml per rat of 9.permill. physiological serum and subcutaneously 1 μg/kg of aldosterone monoacetate in 2.5% alcoholic solution.
# The rats were placed in pairs in a diuresis cage without food or drink for 4 hours and at this time, a forced emission was induced by pressure against the bladder and the volume of recovered urine was measured. After careful rinsing of the cages and the glass, the urine volume was adjusted to 50 ml and this solution was treated to determine the amount of potassium and sodium in the urine by flame photometry in an autoanalyszer. […] 125-132]. […]
# [1] = target: T1, androgen hormonal receptor of prostate cytosol (Rattus norvegicus, UniProt P15207); assay: Androgenic activity: hormonal receptor method of Raynaud, displacement of tritiated 17α-methyl-Δ^4,9,11-estratriene-17β-ol-3-one (Product R) in prostate cytosol; type: binding; conditions: prostate cytosol of castrated male rats, incubated at 0° C. for 2 hours
# T1 construct: The homogenate was centrifuged at 105,000 g per hour and the surnageant or cytosol was adjusted to a dilution of 1/5; from tissue; host or cells: prostate cytosol of male rats castrated 24 hours earlier
# T1 sequence (P15207 1-902): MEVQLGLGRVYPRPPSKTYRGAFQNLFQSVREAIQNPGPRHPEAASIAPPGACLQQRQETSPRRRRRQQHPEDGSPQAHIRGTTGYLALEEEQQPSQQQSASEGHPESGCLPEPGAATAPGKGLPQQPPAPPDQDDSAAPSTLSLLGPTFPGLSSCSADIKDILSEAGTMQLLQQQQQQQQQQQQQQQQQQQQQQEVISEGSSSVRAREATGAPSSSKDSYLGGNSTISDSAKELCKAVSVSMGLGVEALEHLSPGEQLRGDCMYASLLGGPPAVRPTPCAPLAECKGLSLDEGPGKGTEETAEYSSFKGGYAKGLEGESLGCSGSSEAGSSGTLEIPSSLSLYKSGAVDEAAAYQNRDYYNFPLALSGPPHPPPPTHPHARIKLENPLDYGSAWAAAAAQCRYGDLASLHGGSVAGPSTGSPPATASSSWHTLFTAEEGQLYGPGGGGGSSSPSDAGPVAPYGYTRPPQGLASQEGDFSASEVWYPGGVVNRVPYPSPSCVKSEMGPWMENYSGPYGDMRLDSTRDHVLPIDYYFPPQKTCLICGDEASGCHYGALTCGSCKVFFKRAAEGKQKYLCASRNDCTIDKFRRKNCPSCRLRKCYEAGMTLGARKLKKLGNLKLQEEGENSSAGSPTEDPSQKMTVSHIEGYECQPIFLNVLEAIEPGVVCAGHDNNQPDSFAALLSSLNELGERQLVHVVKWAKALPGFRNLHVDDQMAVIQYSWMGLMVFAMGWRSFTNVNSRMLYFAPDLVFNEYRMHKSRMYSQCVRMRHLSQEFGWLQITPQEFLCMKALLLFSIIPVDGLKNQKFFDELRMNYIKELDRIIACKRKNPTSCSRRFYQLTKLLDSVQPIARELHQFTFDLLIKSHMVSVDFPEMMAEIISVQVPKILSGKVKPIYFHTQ
# Procedure: The latter was homogenized in a buffered solution of 10 mm of tromethamine, 0.25 M of saccharose and a pH of 7.4 with hydrochloric acid. The homogenate was centrifuged at 105,000 g per hour and the surnageant or cytosol was adjusted to a dilution of 1/5 (weight/volume). The resulting solution was incubated at 0° C. for 2 hours in tubes with the same volume of cytosol with a fixed concentration of tritiated 17α-methyl-Δ^4,9,11 - estratriene-17β-ol-3-one (designated as tritiated Product R) in the presence or not of an increasing concentration of radioinactive 17α-methyl-Δ^4,9,11 -estratriene-17β-ol-3-one (designated as cold product R) or the test product. […] The plots were the curves representing the percentage of tritiated product R as a function of the log of the concentration of cold product R or the test product of the I50 straight line parallel to the axis of the abcisses and ordinates.
# B/T=(B/T Max.+B/T Min.)/2
# B/T max. is the percentage of tied tritiated product R when the product is not added and B/T min, is the percentage of tied tritiated product R when the maximum amount of cold product R is added.
smiles,measurement,setting,value
"CCC[C@@H]1CC2=CC(=O)C=C[C@]2(C)[C@H]2CC[C@@]3(C)[C@@H](CC[C@@]3(O)CCC(=O)O)[C@H]12 [Example 10, Potassium 7α-propyl-17α-Δ^1,4-pregnadiene-17β-ol-3-one-21-carboxylate]",percentage of inhibition of the activity of 1 μg/kg of aldosterone monoacetate (log of ratio sodium concentration/potassium concentration in urine),aldosterone monoacetate; 0.4 mg/kg orally,30%
same,percentage of inhibition of the activity of 1 μg/kg of aldosterone monoacetate (log of ratio sodium concentration/potassium concentration in urine),aldosterone monoacetate; 2 mg/kg orally,80%
same,ARL (relative affinity = 100×(CT/CX)),[1],0.02
